Active and inactive are the calls of the source. The calls are words filed in the database; no cut-off is given here.
Legend:
[1] = target: Glutaminyl-peptide cyclotransferase (Homo sapiens, UniProt Q16769); assay: Inhibition of human glutaminyl cyclase activity assessed as fluorescence using H-Gln-AMC substrate
[2] = target: Glycogen synthase kinase-3 beta (Homo sapiens, UniProt P49841); assay: Inhibition of GSK3beta (unknown origin) activity assessed as fluorescence intensity by ADP-Glo Kinase Assay
Chain of Glycogen synthase kinase-3 beta (P49841 whole entry): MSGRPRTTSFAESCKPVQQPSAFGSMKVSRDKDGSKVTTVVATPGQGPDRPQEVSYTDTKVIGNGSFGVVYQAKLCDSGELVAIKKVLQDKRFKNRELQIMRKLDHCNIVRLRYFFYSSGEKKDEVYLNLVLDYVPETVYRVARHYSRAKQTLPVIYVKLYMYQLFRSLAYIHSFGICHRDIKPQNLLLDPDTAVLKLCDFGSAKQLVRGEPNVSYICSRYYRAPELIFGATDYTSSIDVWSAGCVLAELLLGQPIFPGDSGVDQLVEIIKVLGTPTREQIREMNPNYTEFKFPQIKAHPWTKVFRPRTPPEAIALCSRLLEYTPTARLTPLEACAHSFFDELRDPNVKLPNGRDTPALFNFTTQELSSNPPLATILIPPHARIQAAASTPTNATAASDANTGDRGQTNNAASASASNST

Mus musculus = species on record: Mus musculus; conditions: dose 8.0 mg/kg, route ip, time 45.0 day
[3] = In vivo inhibition of GSK3beta activity in cortex region of 3 x Tg-AD mouse model at 8 mg/kg, ip every 48 hrs once for 45 days by Western blot analysis relative to control; type: functional; design: scale not given: the % may be the effect or the level left; conditions: time 45 day

Chain of Glutaminyl-peptide cyclotransferase (Q16769 whole entry): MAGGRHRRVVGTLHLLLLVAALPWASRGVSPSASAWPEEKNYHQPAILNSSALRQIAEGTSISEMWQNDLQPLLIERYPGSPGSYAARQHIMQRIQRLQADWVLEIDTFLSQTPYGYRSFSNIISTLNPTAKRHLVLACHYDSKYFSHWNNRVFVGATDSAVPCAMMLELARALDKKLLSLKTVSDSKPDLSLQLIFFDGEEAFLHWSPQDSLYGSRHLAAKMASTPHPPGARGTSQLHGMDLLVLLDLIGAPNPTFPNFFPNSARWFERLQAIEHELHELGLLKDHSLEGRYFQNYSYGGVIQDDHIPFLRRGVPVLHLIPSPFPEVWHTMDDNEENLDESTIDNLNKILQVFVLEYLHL

Compound | IC50 [1] [µM] | IC50 [2] [µM] | inhibition (Mus musculus) | Activity [3] [%]
CC(C)(C)c1ccc(C2=C(c3cn(CCCn4ccnc4)c4ccc(Br)cc34)C(=O)NC2=O)cc1 | 8.17 | 0.42 |  | 
O=C1NC(=O)C(c2cn(CCCn3ccnc3)c3ccc(Br)cc23)=C1c1cccs1 | 1.04 | 0.09 |  | 
Cc1ccc(C2=C(c3cn(CCCn4ccnc4)c4ccc(C)cc34)C(=O)NC2=O)cc1 | 5.47 | 7.75 |  | 
Cc1ccc2c(c1)c(C1=C(c3ccc4ccccc4c3)C(=O)NC1=O)cn2CCCn1ccnc1 | 3.44 | 5.14 |  | 
O=C1NC(=O)C(c2cn(CCCn3ccnc3)c3ccccc23)=C1c1ccccc1F | 2.37 | 17.7 |  | 
COc1ccc(C2=C(c3cn(CCCn4ccnc4)c4ccc(OC)cc34)C(=O)NC2=O)cc1 | 5.9 | 0.014 |  | 
COc1ccccc1C1=C(c2cn(CCCn3ccnc3)c3ccccc23)C(=O)NC1=O | 7.32 | 19 |  | 
Cc1ccc2c(c1)c(C1=C(c3ccc(F)cc3)C(=O)NC1=O)cn2CCCn1ccnc1 | 4.36 | 23.3 |  | 
O=C1NC(=O)C(c2cn(CCCn3ccnc3)c3ccc(Br)cc23)=C1c1ccc(F)cc1 | 2.55 | 0.14 |  | 
COc1ccc(C2=C(c3cn(CCCn4ccnc4)c4cc(Br)ccc34)C(=O)NC2=O)cc1 | 2.59 | 0.23 |  | 
COc1ccc(C2=C(c3cn(CCCn4ccnc4)c4ccc(C)cc34)C(=O)NC2=O)cc1 | 6.13 | 19.9 |  | 
O=C1NC(=O)C(c2cn(CCCn3ccnc3)c3ccccc23)=C1c1c[nH]c2ccccc12 | 4.27 | 22.8 |  | 
COc1ccc(C2=C(c3cn(CCCn4ccnc4)c4ccc(Br)cc34)C(=O)NC2=O)cc1 | 2.33 | 0.11 |  | 
Cc1ccc(C2=C(c3cn(CCCn4ccnc4)c4cc(C)ccc34)C(=O)NC2=O)cc1 | 11.9 | 0.048 |  | 
COc1ccc2c(c1)c(C1=C(c3ccc(C)cc3)C(=O)NC1=O)cn2CCCn1ccnc1 | 9 | 0.099 |  | 
O=C1NC(=O)C(c2cn(CCCn3ccnc3)c3ccccc23)=C1c1ccc(F)cc1 | 1.34 | 0.057 | Active | 73.4
Cc1ccc2c(c1)c(C1=C(c3ccccc3[N+](=O)[O-])C(=O)NC1=O)cn2CCCn1ccnc1 | 3.62 | 8.15 |  | 
O=C1NC(=O)C(c2cn(CCCn3ccnc3)c3ccc(Br)cc23)=C1c1cc(F)c(F)cc1F | 2.35 | 0.12 |  | 
Cc1ccccc1C1=C(c2cn(CCCn3ccnc3)c3cc(Br)ccc23)C(=O)NC1=O | 3.85 | 0.14 |  | 
O=C1NC(=O)C(c2cn(CCCn3ccnc3)c3ccc(Br)cc23)=C1c1ccccc1F | 4.7 | 0.032 |  | 
COc1ccccc1C1=C(c2cn(CCCn3ccnc3)c3cc(Br)ccc23)C(=O)NC1=O | 21.7 | 0.021 |  | 
O=C1NC(=O)C(c2cn(CCCn3ccnc3)c3ccc(Br)cc23)=C1c1ccc2c(c1)OCO2 | 2.51 | 0.044 |  | 
COc1ccc2c(C3=C(c4ccccc4F)C(=O)NC3=O)cn(CCCn3ccnc3)c2c1 | 10.8 | 0.011 |  | 
O=C1NC(=O)C(c2cn(CCCn3ccnc3)c3cc(Br)ccc23)=C1c1ccccc1F | 4.77 | 0.06 |  | 
Cc1ccc(C2=C(c3cn(CCCn4ccnc4)c4ccc(Br)cc34)C(=O)NC2=O)cc1 | 2.08 | 0.19 |  | 
COc1ccc2c(c1)c(C1=C(c3ccc4ccccc4c3)C(=O)NC1=O)cn2CCCn1ccnc1 | 4.97 | 0.059 |  | 
COc1ccccc1C1=C(c2cn(CCCn3ccnc3)c3ccc(C)cc23)C(=O)NC1=O | 8.12 | 0.065 |  | 

Compound | IC50 [1] [µM] | IC50 [2] [µM] | inhibition (Mus musculus) | Activity [3] [%]
COc1ccc2c(c1)c(C1=C(c3ccc(F)cc3)C(=O)NC1=O)cn2CCCn1ccnc1 | 0.36 | 0.15 |  | 
O=C1NC(=O)C(c2cn(CCCn3ccnc3)c3ccccc23)=C1c1ccc2ccccc2c1 | 3.51 | 9.19 |  | 
O=C1NC(=O)C(c2cn(CCCn3ccnc3)c3cc(Br)ccc23)=C1c1ccc2ccccc2c1 | 3.98 | 0.1 |  | 
O=C1NC(=O)C(c2cn(CCCn3ccnc3)c3ccc(Br)cc23)=C1c1ccccc1 | 1.76 | 0.069 |  | 
COc1ccc2c(c1)c(C1=C(c3ccccc3OC)C(=O)NC1=O)cn2CCCn1ccnc1 | 2.44 | 19.8 |  | 
COc1ccccc1C1=C(c2cn(CCCn3ccnc3)c3ccc(Br)cc23)C(=O)NC1=O | 6.62 | 5.2 |  | 
COc1ccc2c(c1)c(C1=C(c3ccccc3F)C(=O)NC1=O)cn2CCCn1ccnc1 | 3.65 | 20.8 |  | 
Cc1ccccc1C1=C(c2cn(CCCn3ccnc3)c3ccc(Br)cc23)C(=O)NC1=O | 5.12 | 0.087 |  | 
COc1ccc2c(c1)c(C1=C(c3ccccc3C)C(=O)NC1=O)cn2CCCn1ccnc1 | 4.34 | 8.01 |  | 
Cc1ccc2c(c1)c(C1=C(c3ccccc3F)C(=O)NC1=O)cn2CCCn1ccnc1 | 3.39 | 47.1 |  | 
COc1ccc(C2=C(c3cn(CCCn4ccnc4)c4ccc(Br)cc34)C(=O)NC2=O)cc1OC | 3.16 | 0.051 |  | 
Cc1ccc(C2=C(c3cn(CCCn4ccnc4)c4cc(Br)ccc34)C(=O)NC2=O)cc1 | 3.44 | 0.38 |  | 
Cc1ccccc1C1=C(c2cn(CCCn3ccnc3)c3ccccc23)C(=O)NC1=O | 4.18 | 26.7 |  | 
Cc1ccc2c(C3=C(c4ccc5ccccc5c4)C(=O)NC3=O)cn(CCCn3ccnc3)c2c1 | 10.8 | 0.14 |  | 
COc1ccc2c(c1)c(C1=C(c3ccccc3[N+](=O)[O-])C(=O)NC1=O)cn2CCCn1ccnc1 | 9.91 | 0.034 |  | 
COc1ccc(C2=C(c3cn(CCCn4ccnc4)c4ccccc34)C(=O)NC2=O)cc1 | 7.46 | 0.04 |  | 
Cc1ccc2c(c1)c(C1=C(c3ccccc3C)C(=O)NC1=O)cn2CCCn1ccnc1 | 3.84 | 0.073 |  | 
COc1ccc(C2=C(c3cn(CCCn4ccnc4)c4cc(C)ccc34)C(=O)NC2=O)cc1 | 7.01 | 0.097 |  | 
Cc1ccc(C2=C(c3cn(CCCn4ccnc4)c4ccccc34)C(=O)NC2=O)cc1 | 4.34 | 15.4 |  | 
Cc1ccc2c(C3=C(c4ccccc4[N+](=O)[O-])C(=O)NC3=O)cn(CCCn3ccnc3)c2c1 | 69.1 | 0.1 |  | 
O=C1NC(=O)C(c2cn(CCCn3ccnc3)c3cc(Br)ccc23)=C1c1ccc(F)cc1 | 2.81 | 0.72 |  | 
Cc1cc(C)c(C2=C(c3cn(CCCn4ccnc4)c4ccc(Br)cc34)C(=O)NC2=O)c(C)c1 | 2.34 | 0.11 |  | 
O=C1NC(=O)C(c2cn(CCCn3ccnc3)c3ccccc23)=C1c1ccccc1[N+](=O)[O-] | 2.26 | 35.1 |  | 
O=C1NC(=O)C(c2cn(CCCn3ccnc3)c3ccc(Br)cc23)=C1c1cc(C(F)(F)F)cc(C(F)(F)F)c1 | 6.88 | 0.59 |  | 
O=C1NC(=O)C(c2cn(CCCn3ccnc3)c3ccc(Br)cc23)=C1c1ccccc1[N+](=O)[O-] | 4.28 | 0.066 |  | 
O=C1NC(=O)C(c2cn(CCCn3ccnc3)c3ccc(Br)cc23)=C1c1ccc2ccccc2c1 | 2.98 | 0.069 |  | 
O=C1NC(=O)C(c2cn(CCCn3ccnc3)c3ccccc23)=C1c1ccccc1 | 2.8 | 0.014 |  | 
